The text below walks through data of patent publication US20250250298A1, “ONCOLYTIC PEPTIDE AND USE THEREOF” (Rise Biopharmaceuticals Inc., priority 2022, published 2025).

Where a SMILES comes first, the peptide text is derived from it.

The subject of series [1] is EO771 (Murine mammary adenocarcinoma). Put plainly: MTT cytotoxicity, EO771. The class given is cell-based. To be noted: EO771, 24 hours incubation. The source says:
(§1) The MTT assay is a colorimetric method for measuring the activity of enzymes in living cells that reduces Thiazolyl blue tetrazolium bromide (MTT) to formazan dyes showing a purple color. In this embodiment, a colorimetric 3-(4.5-dimethylthiazol-2-yl)-2.5-diphenyltetrazodium bromide (MTT) viability assay was used to assess the in vitro cytotoxicity of oncolytic peptides.
(§2) The half inhibition concentration (IC50) is the concentration required by the oncolytic peptides to reach fifty percent inhibition. In one embodiment, the oncolytic peptides were used for IC50 test via MTT colorimetric assay.
(§3) Human lung cancer lines PC9 and A549 and murine pancreatic cancer cell line Panc02 were cultured in RPMI medium supplemented with 10% fetal bovine serum and antibiotic in this embodiment. Additionally, murine hepatoma cell line Hepa 1-6, murine melanoma cell line B16-F10, murine fibrosarcoma cell line MN-11, murine mammary cancer cell line E0771 and human diploid fibroblast (HFW) were cultured in DMEM medium supplemented with 10% fetal bovine serum and antibiotic. Cells were cultured in a humidified incubator containing 5% CO2 at 37° C.
(§4) All cancer cell lines were seeded in a 96-well plate with a concentration of 5000-8000 cells/100 μl/well and incubated for 24 hrs. After medium was removed, 100 μl fresh medium containing peptide (ranging from 50 μM to 0.8 μM) was added to the wells. Following 24 hours incubation, fresh medium with MTT (0.5 mg/ml) was replaced and incubated for 3 hours. After medium/MTT was removed, DMSO was added at 100 μl for dissolving the formazan crystal. Cell survival rate was calculated by measuring the absorbance at 540 nm using a Multi-labeled Microplate Reader (Sunrise™, TECAN).

For another series, the system named is MN-11 fibrosarcoma. The class given is in vivo. To be noted: MN-11 tumor-bearing C57BL/6 mice. On the procedure:
FIGS. 4A-4B are schematic diagrams of MN-11 fibrosarcoma experiments. FIG. 4A: The right flank of the mouse was administrated with SEQ ID NO:9, and the left flank of the mouse was untreated (tumor only). […] Palpable tumors (100 mm^3) were injected (IT.) with single doses of SEQ ID NO:9 dissolved in PBS (1.0 mg peptide/50 μl PBS) once a day for 5 consecutive days, and the vehicle control was saline only (0.9% NaCl).
Female C57BL/6 mice (4- to 6-week old) as allogeneic model animals were purchased from BioLASCO Taiwan Co., Ltd. and maintained in a specific pathogen-free and controlled environment. During the experiments, female mice, weighing 18.0-24.0 g each, were kept in groups of 4 to 6 animals per cage under climate-controlled conditions, with 12 h light/dark cycles and an ambient temperature. The mice were housed in an enriched individually ventilated cage (IVC) system with free access to standard rodent chow and water ad libitum. The animals were anesthetized during the experimental procedures with 2.5% isoflurane gas. The animals were monitored daily. […]
Tumor size was measured 3 times a week using a caliper, and the volume of tumors was calculated using the following formula: Tumor size (mm^3)=0.5×(width^2×length). […] The survival rates of tumor-bearing mice were observed and recorded continuously until all animals died. […]

The test system of series [2] is MN-11 (Murine fibrosarcoma). Kind of series: MTT cytotoxicity, MN-11. It counts as cell-based. To be noted: MN-11, 24 hours incubation.
From the text: as §1, §2, §3, §4

Series [3] concerns A549 (Human non-small cell lung cancer cell). Kind of series: MTT cytotoxicity, A549. As to conditions: A549, 24 hours incubation. It counts as cell-based.
From the text: as §1, §2, §3, §4

Series [4] concerns Hepa I-6 (Murine hepatocellular carcinoma). Put plainly: MTT cytotoxicity, Hepa 1-6. To be noted: Hepa I-6, 24 hours incubation. It counts as cell-based.
From the text: as §1, §2, §3, §4

For series [5], the system named is A375 (human malignant melanoma). Kind of series: MTT cytotoxicity, A375. The class given is cell-based. As to conditions: A375, 24 hours incubation.
From the text: as §1, §2, §4

The next series concerns B16-F10 melanoma. It counts as in vivo. As to conditions: B16-F10 tumor-bearing C57BL/6 mice. On the procedure:
FIGS. 1A-1B are schematic diagrams of B16-F10 melanoma experiments. The right flank of the mouse was administrated with SEQ ID NO:9, and the left flank of the mouse was untreated (tumor only) in FIG. 1A. […] (3×10^6B16-F10 cells per mouse/50 μl RPMI-1640). Palpable tumors (20-30 mm^3) were injected […] (IT.) with single doses of SEQ ID NO:9 dissolved in PBS (1.0 mg peptide/50 μl PBS) once a day for 5 consecutive days, and the vehicle control was saline only (0.9% NaCl).
Female C57BL/6 mice (4- to 6-week old) as allogeneic model animals were purchased from BioLASCO Taiwan Co., Ltd. and maintained in a specific pathogen-free and controlled environment. During the experiments, female mice, weighing 18.0-24.0 g each, were kept in groups of 4 to 6 animals per cage under climate-controlled conditions, with 12 h light/dark cycles and an ambient temperature. The mice were housed in an enriched individually ventilated cage (IVC) system with free access to standard rodent chow and water ad libitum. The animals were anesthetized during the experimental procedures with 2.5% isoflurane gas. The animals were monitored daily. All procedures were conducted according to the regulations of Laboratory Animal Care and Use Committee or Group Setup and Management and the law of Animal Protection.
Palpable tumors (for example, 20-30 mm^3 for B16-F10 tumor-bearing mice, 100 mm^3 for MN-11 tumor-bearing mice, 75 mm^3 for E0771 tumor-bearing mice) were injected (IT.) with single doses of SEQ ID NO:9 dissolved in PBS (1.0 mg peptide/50 μl PBS) once a day for 5 consecutive days, and the vehicle control was saline only (0.9% NaCl).
Tumor size was measured 3 times a week using a caliper, and the volume of tumors was calculated using the following formula: Tumor size (mm^3)=0.5×(width^2×length). The results were shown as volume±SEM. The survival rates of tumor-bearing mice were observed and recorded continuously until all animals died.
To evaluate the effect of SEQ ID NO:9 in vivo, the B16-F10 allogeneic model was used in C57BL/6 mice (FIGS. 1A-1B). […]

Series [6] relates to C9 (Human oral cancer cell). Kind of series: MTT cytotoxicity, C9. It counts as cell-based. To be noted: C9, 24 hours incubation.
From the text: as §1, §2, §4

The next series relates to RBC (Human blood cell). Kind of series: Cytotoxicity, RBC. It counts as cell-based.
From the text: as §2

Series [7] is described as follows: Peptide stability in serum. It counts as in vitro ADME. As to conditions: 25% (vol/vol) bovine calf serum. On the procedure: Since this kind of peptide is highly toxic, the hope is that the peptide can be decomposed after inducing cancer cells to release danger-associated molecular patterns (DAMPs), and will not stay in the body for too long. After exposure to 25% (vol/vol) bovine calf serum, the residues of peptides were analyzed by liquid chromatography, and the stability at different time points was calculated.

[8] abbreviates: IT. 1.0 mg once a day for 5 days, vs untreated controls.
The mark [9] stands for this setting: IT. 1.0 mg peptide/50 μl PBS once a day for 5 consecutive days, vs saline control.

What is called IC50 is the concentration that inhibits the measured activity by half. A higher IC50 goes with a need for much substance. For the molecule `CC(C)C[C@H](NC(=O)[C@H](Cc1ccc2ccccc2c1)NC(=O)[C@H](CCCCN)NC(=O)[C@H](CC(C)C)NC(=O)[C@H](Cc1c[nH]c2ccccc12)NC(=O)[C@H](CCCCN)NC(=O)[C@H](CCCNC(=N)N)NC(=O)[C@H](Cc1c[nH]c2ccccc12)NC(=O)[C@H](CCCNC(=N)N)NC(=O)[C@H](CCCNC(=N)N)NC(=O)[C@H](CCCCN)NC(=O)[C@H](CCCCN)NC(=O)[C@H](CCCCN)NC(=O)[C@@H](N)CCCCN)C(=O)N[C@@H](C)C(=O)N[C@@H](CCCCN)C(N)=O` [SEQ ID NO: 9, KKKK-RR-WRK-WLK-Nal-LA-K-NH2] (HELM PEPTIDE1{K.K.K.K.R.R.W.R.K.W.L.K.[O=C([C@H](Cc1ccc2ccccc2c1)N[*:1])[*:2]].L.A.K.[am]}$$$$V2.0; N-terminus assumed), the IC50 in series [1] stood at 2010 nM; in series [2] it was 2900 nM; in series [3], 2790 nM; in series [4], 1690 nM; in [5] it was 3840 nM; in series [6] it was 6430 nM. 25700 nM corresponded to half-maximal inhibition with RBC (Human blood cell) (IC50). Besides, the “Survival (lifespan)” value with MN-11 fibrosarcoma (setting [8]) and with B16-F10 melanoma (setting [8]) was “extended the lifespan” throughout. Also, the “Tumor growth, treated tumor (right side)” value in the series with MN-11 fibrosarcoma (setting [9]) was “significantly inhibited unilateral (right side) tumor growth”. Also, in the series with B16-F10 melanoma (setting [9]), the “Tumor growth, treated tumor (right flank)” value is “significantly inhibited tumor growth”. In the series on B16-F10 melanoma (untreated left flank, peptide IT. into right flank 1.0 mg once a day for 5 days), the “Tumor growth, distal tumor (left side)” value is listed as “also inhibited”. Further, the “Serum stability (residual peptide)” value in series [7] (0 hr) was 100.00%. Also, the remaining at 0.5 h in series [7] (0.5 hr, read-out: Serum stability (residual peptide)) turned out to be 90.7%. In addition, in [7] (1 hr, read-out: Serum stability (residual peptide)), the remaining at 1 h came out at 76.2%. In addition, the remaining at 2 h in [7] (2 hr, read-out: Serum stability (residual peptide)) was 77.9%. Moreover, the remaining at 4 h in series [7] (4 hr, read-out: Serum stability (residual peptide)) came out at 70.9%. The remaining at 6 h in series [7] (6 hr, read-out: Serum stability (residual peptide)) worked out at 74.2%. Besides, the remaining at 8 h in series [7] (8 hr, read-out: Serum stability (residual peptide)) came out at 55.8%.
